Experimental findings from ChEMBL document CHEMBL1697821, “Development of a phospholipidosis database and predictive quantitative structure-activity relationship (QSAR) models” (Toxicol Mech Methods, 2008) are described below.

The structures appear in SMILES notation.

This data set deals with Phospholipidosis. As to the kind of experiment: Literature-mined public compounds from Kruhlak et al phospholipidosis modelling dataset.
`CCC(c1ccc(OCCN(CC)CC)cc1)C(CC)c1ccc(OCCN(CC)CC)cc1` (stereo unspecified) [CORALGIL]: the Phospholipidosis entry is “Positive: strong inducer confirmed by electron microscopy”. Consider `CC[C@H](OC(C)=O)C(C[C@H](C)N(C)C)(c1ccccc1)c1ccccc1` [LEVOMETHADYL ACETATE], for which the Phospholipidosis result was “Negative: based on the absence of positive reported data from WMDD”. Next, `COc1ncnc(NS(=O)(=O)c2ccc(N)cc2)c1OC` [SULFADOXINE]: “Negative: based on the absence of positive reported data from WMDD”; `C=C[C@H]1C[N@@]2CC[C@H]1C[C@@H]2[C@@H](O)c1ccnc2ccc(OC)cc12` [QUINIDINE]: “Positive: weak inducer based on presence of foamy macrophages and cytoplasmic vacuolations”; `CC(C)(N)Cc1ccc(Cl)cc1` [CHLORPHENTERMINE]: “Positive: strong inducer confirmed by electron microscopy”. For the compound `Clc1ccccc1CNC[C@H]1CC[C@H](CNCc2ccccc2Cl)CC1`, the Phospholipidosis entry is recorded as “Positive: strong inducer confirmed by electron microscopy”. As for `CCCC(=O)O[C@H]1[C@H](C)O[C@@H](O[C@H]2[C@H](N(C)C)[C@@H](O)[C@H](O[C@H]3[C@@H](CC=O)C[C@@H](C)[C@@H](O)/C=C/C=C/C[C@@H](C)OC(=O)C[C@@H](O)[C@@H]3OC)O[C@@H]2C)C[C@@]1(C)OC(=O)CC` [ROKITAMYCIN], the entry is “Negative: based on the absence of positive reported data from WMDD”. Next, `CCN(CC)CCNC(=O)c1ccc(N)cc1` [PROCAINAMIDE]: “Negative: confirmed by electron microscopy”. Next, `COc1cc2nc(N3CCN(C(=O)C4CCCO4)CC3)nc(N)c2cc1OC` (stereo unspecified) [TERAZOSIN]: “Negative: based on the absence of positive reported data from WMDD”; `Cc1ccc(/C(=C\CN2CCCC2)c2ccccn2)cc1` [TRIPROLIDINE]: “Negative: based on the absence of positive reported data from WMDD”. Take `COc1cccc2c1C(=O)c1c(O)c3c(c(O)c1C2=O)C[C@@](O)(C(=O)CO)C[C@@H]3O[C@H]1C[C@H](N)[C@@H](O)[C@H](C)O1` [EPIRUBICIN]: the Phospholipidosis entry is “Negative: based on the absence of positive reported data from WMDD”. Turning to `CC1(C)S[C@@H]2[C@H](NC(=O)COc3ccccc3)C(=O)N2[C@H]1C(=O)O` [PENICILLIN V], the Phospholipidosis entry is given as “Negative: based on the absence of positive reported data from WMDD”. As for `CO[C@@H]1[C@@H](OC(N)=O)[C@@H](O)[C@H](Oc2ccc3c(O)c(NC(=O)c4ccc(O)c(CC=C(C)C)c4)c(=O)oc3c2C)OC1(C)C` [NOVOBIOCIN], the Phospholipidosis entry was “Negative: based on the absence of positive reported data from WMDD”. With `CCN[C@@H]1C[C@H](N)[C@@H](O[C@H]2OC(CN)=CC[C@H]2N)[C@H](O)[C@H]1O[C@H]1OC[C@](C)(O)[C@H](NC)[C@H]1O` [NETILMICIN], the Phospholipidosis result was “Positive: strong inducer confirmed by electron microscopy”. On to `CN(C)CCCN1c2ccccc2Sc2ccc(Cl)cc21` [CHLORPROMAZINE], for which the Phospholipidosis result is reported as “Positive: strong inducer confirmed by electron microscopy”.

On to `CN(C)CCCn1c2c(c3ccccc31)CCCCCC2` [IPRINDOLE], for which the Phospholipidosis result was “Positive: strong inducer confirmed by electron microscopy”.

Take `Nc1cc(-c2ccncc2)c[nH]c1=O` [INAMRINONE]: the Phospholipidosis result is “Negative: based on the absence of positive reported data from WMDD”. In the case of `CN(C)CCN(Cc1ccccc1)c1ccccn1` [TRIPELENNAMINE], the Phospholipidosis result was “Positive: weak inducer based on presence of foamy macrophages and cytoplasmic vacuolations”. For the compound `CCCCC[C@H](O)/C=C/[C@@H]1[C@H]2C/C(=C/CCCC(=O)O)O[C@H]2C[C@H]1O` [EPOPROSTENOL], the Phospholipidosis entry is recorded as “Negative: based on the absence of positive reported data from WMDD”. Next, `CCN(CC)CCN1C(=O)CN=C(c2ccccc2F)c2cc(Cl)ccc21` [FLURAZEPAM]: “Negative: based on the absence of positive reported data from WMDD”; `NC[C@H]1O[C@H](O[C@H]2[C@H](O)[C@@H](O[C@H]3O[C@H](CO)[C@@H](O)[C@H](N)[C@H]3O)[C@H](N)C[C@@H]2N)[C@H](N)[C@@H](O)[C@@H]1O` [BEKANAMYCIN]: “Negative: based on the absence of positive reported data from WMDD”. As for `CN1CCN(CC/C=C2/c3ccccc3Sc3ccc(S(=O)(=O)N(C)C)cc32)CC1` [THIOTHIXENE], the entry is “Negative: based on the absence of positive reported data from WMDD”; as for `CC(C)[N+](C)(CCC(C(N)=O)(c1ccccc1)c1ccccc1)C(C)C` [ISOPROPAMIDE], “Negative: based on the absence of positive reported data from WMDD”. Consider `CN(C)CCN(Cc1cccs1)c1ccccn1`, for which the Phospholipidosis result was “Negative: confirmed by electron microscopy”. For `CN1CCCCC1CCN1c2ccccc2Sc2ccc([S+](C)[O-])cc21` (stereo unspecified) [MESORIDAZINE], the Phospholipidosis entry was “Positive: weak inducer based on presence of foamy macrophages and cytoplasmic vacuolations”.

Take `CC(=O)Oc1ccc(C(c2ccc(OC(C)=O)cc2)c2ccccn2)cc1` [BISACODYL]: the Phospholipidosis entry is listed as “Negative: based on the absence of positive reported data from WMDD”.

`O=C(Cn1c(=O)sc2ccc(Cl)cc21)N1CCN(CCO)CC1` [TIARAMIDE]: the Phospholipidosis entry was “Negative: based on the absence of positive reported data from WMDD”. `CC(=O)[C@@]1(O)CC[C@H]2[C@@H]3C=C(Cl)C4=CC(=O)CC[C@]4(C)[C@H]3CC[C@@]21C` [CHLORMADINONE]: the Phospholipidosis entry is “Negative: based on the absence of positive reported data from WMDD”. In the case of `CN(C)CCCN(C)[C@H]1CC[C@H]2[C@@H]3CC=C4C[C@@H](O)CC[C@]4(C)[C@H]3CC[C@]12C` [AZACOSTEROL], the Phospholipidosis result is “Positive: strong inducer confirmed by electron microscopy”. Next, `CN(C)CCOc1ccc(/C(=C(/CCCl)c2ccccc2)c2ccccc2)cc1` [TOREMIFENE]: “Negative: based on the absence of positive reported data from WMDD”; `C=CC1=C(C(=O)O)N2C(=O)[C@@H](NC(=O)/C(=N\OCC(=O)O)c3csc(N)n3)[C@H]2SC1` [CEFIXIME]: “Negative: based on the absence of positive reported data from WMDD”; `CC(=O)c1ccc2c(c1)N(CCCN1CCN(CCO)CC1)c1ccccc1S2` [ACETOPHENAZINE]: “Negative: based on the absence of positive reported data from WMDD”. With `CC(=O)CCCCn1c(=O)c2c(ncn2C)n(C)c1=O` [PENTOXIFYLLINE], the Phospholipidosis entry is on record as “Negative: based on the absence of positive reported data from WMDD”. `CCCN(CCC)C(=O)C(CCC(=O)O)NC(=O)c1ccccc1` (stereo unspecified) [PROGLUMIDE]: the Phospholipidosis entry is given as “Negative: based on the absence of positive reported data from WMDD”.

For the compound `CC(=O)OCC(=O)[C@@]1(OC(=O)C(C)C)[C@@H](C)C[C@H]2[C@@H]3CCC4=CC(=O)C=C[C@]4(C)[C@@]3(F)[C@@H](O)C[C@@]21C` [BETAMETHASONE ACIBUTATE], the Phospholipidosis entry was “Negative: based on the absence of positive reported data from WMDD”. Next, `CN(C)CCCN1c2ccccc2CCc2ccc(Cl)cc21` [CLOMIPRAMINE]: “Positive: strong inducer confirmed by electron microscopy”. `CN1CCN(C(c2ccccc2)c2ccccc2)CC1` [CYCLIZINE]: the Phospholipidosis entry was “Positive: strong inducer confirmed by electron microscopy”.

Turning to `COc1cccc2c1C(=O)c1c(O)c3c(c(O)c1C2=O)C[C@@](O)(C(=O)CO)C[C@@H]3O[C@H]1C[C@H](N)[C@H](O)[C@H](C)O1` [DOXORUBICIN], the Phospholipidosis entry is reported as “Negative: confirmed by electron microscopy”. Next, `CC(C)[N+](C)(CCOC(=O)C1c2ccccc2Oc2ccccc21)C(C)C.[Br-]` [PROPANTHELINE BROMIDE]: “Negative: based on the absence of positive reported data from WMDD”; `CC(C(=O)O)c1cccc(Oc2ccccc2)c1` (stereo unspecified) [FENOPROFEN]: “Negative: based on the absence of positive reported data from WMDD”; `CC(=O)Nc1c(I)cc(I)c(C(=O)O)c1I` [ACETRIZOIC ACID]: “Negative: based on the absence of positive reported data from WMDD”. Turning to `CC(C)(C(=O)c1cccnc1)c1cccnc1` [METYRAPONE], the Phospholipidosis result was “Negative: based on the absence of positive reported data from WMDD”. In the case of `CC1=C(/C=C/C(C)=C/C=C/C(C)=C/C=C/C=C(C)/C=C/C=C(C)/C=C/C2=C(C)CCCC2(C)C)C(C)(C)CCC1` [BETA CAROTENE], the Phospholipidosis entry is listed as “Negative: based on the absence of positive reported data from WMDD”. Next, `CCNC(C)Cc1cccc(C(F)(F)F)c1` (stereo unspecified) [FENFLURAMINE]: “Positive: strong inducer confirmed by electron microscopy”; `O=C(O)c1cc(O)c2c(c1)[C@@H]([C@H]1c3cc(C(=O)O)cc(O)c3C(=O)c3c(O[C@@H]4O[C@H](CO)[C@@H](O)[C@H](O)[C@H]4O)cccc31)c1cccc(O[C@@H]3O[C@H](CO)[C@@H](O)[C@H](O)[C@H]3O)c1C2=O` [SENNOSIDE B]: “Negative: based on the absence of positive reported data from WMDD”; `CN(C)/N=N/c1[nH]cnc1C(N)=O` [DACARBAZINE]: “Negative: based on the absence of positive reported data from WMDD”. Next, `CCN(CC)Cc1cc(Nc2ccnc3cc(Cl)ccc23)ccc1O.Cl`: “Positive: weak inducer based on presence of foamy macrophages and cytoplasmic vacuolations”; `CCC(=O)O[C@@H](O[P@](=O)(CCCCc1ccccc1)CC(=O)N1C[C@H](C2CCCCC2)C[C@H]1C(=O)O)C(C)C` [FOSINOPRIL]: “Negative: based on the absence of positive reported data from WMDD”. As for `CCN(CC)CCOc1ccc(C(O)(Cc2ccc(Cl)cc2)c2ccc(C)cc2)cc1` (stereo unspecified) [TRIPARANOL], the entry is “Positive: strong inducer confirmed by electron microscopy”. In the case of `CC12CC3CC(C)(C1)CC(N)(C3)C2` [MEMANTINE], the Phospholipidosis result was “Positive: weak inducer based on presence of foamy macrophages and cytoplasmic vacuolations”. `CC1(C)NC(=O)N(C[C@@H](COc2ccc(-c3ccc(OC(F)(F)F)cc3)cc2)N(O)C=O)C1=O`: the Phospholipidosis result is recorded as “Negative: confirmed by electron microscopy”.
